Biological target: EcEcEc (Drosophila melanogaster, UniProt P34021)
Assay: Induction of GRE reporter G4M-77CO by EcEcEc (DHR23α) in 293 cells
Format: cell-based
Parameters: To isolate the full-length DHR23α clones; expressed in transfected cells; host or cells: human 293 cells
Conditions: receptor EcEcEc, normalized to hGH, SD in parentheses, 2880 min
Procedure: "G" and "Ec" refer to the glucocorticoid receptor and DHR23α, respectively.
293 cells were transfected with effector plasmids encoding the indicated receptor proteins and the reporter gene G4M-77CO. These transfected cells were incubated either without added hormone (-), with muristerone A (M) or with dex (D).

EcEcEc, sequence (P19793 whole entry): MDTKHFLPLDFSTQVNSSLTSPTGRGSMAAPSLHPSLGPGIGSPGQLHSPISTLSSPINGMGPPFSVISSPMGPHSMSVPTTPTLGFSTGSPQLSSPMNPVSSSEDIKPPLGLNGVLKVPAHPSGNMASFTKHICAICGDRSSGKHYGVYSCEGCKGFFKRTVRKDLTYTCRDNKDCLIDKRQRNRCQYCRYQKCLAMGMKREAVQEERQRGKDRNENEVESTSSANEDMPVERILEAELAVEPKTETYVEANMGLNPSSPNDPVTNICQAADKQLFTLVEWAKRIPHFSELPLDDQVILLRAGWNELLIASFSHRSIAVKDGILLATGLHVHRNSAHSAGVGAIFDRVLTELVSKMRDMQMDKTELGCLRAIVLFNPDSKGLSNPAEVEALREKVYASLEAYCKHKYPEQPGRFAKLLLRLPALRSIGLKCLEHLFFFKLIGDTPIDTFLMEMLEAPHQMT
EcEcEc, sequence (P34021 whole entry): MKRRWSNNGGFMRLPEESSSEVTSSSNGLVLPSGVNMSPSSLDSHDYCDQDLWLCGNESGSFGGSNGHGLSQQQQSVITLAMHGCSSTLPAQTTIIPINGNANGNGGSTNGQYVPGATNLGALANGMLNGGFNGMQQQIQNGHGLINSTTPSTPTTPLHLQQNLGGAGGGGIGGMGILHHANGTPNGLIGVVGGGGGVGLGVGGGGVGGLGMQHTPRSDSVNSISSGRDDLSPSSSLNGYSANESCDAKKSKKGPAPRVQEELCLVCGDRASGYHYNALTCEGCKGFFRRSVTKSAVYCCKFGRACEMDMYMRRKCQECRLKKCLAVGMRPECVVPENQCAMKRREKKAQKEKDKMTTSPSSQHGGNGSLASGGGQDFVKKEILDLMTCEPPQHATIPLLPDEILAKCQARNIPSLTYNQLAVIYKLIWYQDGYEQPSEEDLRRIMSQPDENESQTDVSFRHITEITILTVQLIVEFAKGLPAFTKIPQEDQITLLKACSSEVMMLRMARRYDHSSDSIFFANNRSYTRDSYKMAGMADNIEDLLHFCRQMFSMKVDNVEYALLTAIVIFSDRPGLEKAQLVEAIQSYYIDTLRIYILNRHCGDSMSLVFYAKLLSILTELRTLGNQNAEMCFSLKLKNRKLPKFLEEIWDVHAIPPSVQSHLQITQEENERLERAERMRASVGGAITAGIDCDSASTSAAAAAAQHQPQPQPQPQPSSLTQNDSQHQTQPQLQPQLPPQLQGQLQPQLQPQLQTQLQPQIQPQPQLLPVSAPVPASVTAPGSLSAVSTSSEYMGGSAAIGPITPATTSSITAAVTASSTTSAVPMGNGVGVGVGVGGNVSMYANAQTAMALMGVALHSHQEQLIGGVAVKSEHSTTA

Compound: CC(C)CCC(O)[C@](C)(O)[C@H]1CC[C@@]2(O)C3=CC(=O)C4(O)CC(O)C(O)C[C@]4(C)[C@H]3C(O)C[C@]12C (stereo partly shown) [muristerone A, 2,3,5,11,14,20,22-Heptahydroxy-7-cholesten-6-one]
- fold induction: 0.9 (0.2) fold
